# The NIST ThermoML archive (doi:10.1021/acs.jced.6b00040)
# Numbers after ± are expanded uncertainties.
# Details: Liquid, Ebulliometric method (Recirculating still)
smiles,measurement,setting,value
CC(=O)OC(C)C [1-methylethyl ethanoate],vapor or sublimation pressure,361.45 K,101.3 ± 0.8 kPa
C[S+](C)[O-] [dimethyl sulfoxide],vapor or sublimation pressure,463.38 K,101.3 ± 0.8 kPa
CC(C)O [propan-2-ol],vapor or sublimation pressure,355.33 K,101.3 ± 0.8 kPa
